Measured values as given in PMC10443802, “Targeting a xenobiotic transporter to ameliorate vincristine-induced sensory neuropathy” (JCI Insight, 2023).
Values joined by “and” are separate entries in the source; they are usually repeats but may differ in a detail not shown here. Identical values can stand only once.

Tests used:
[1] = molecular target: T1, hOATP1B1 (Homo sapiens, UniProt Q9Y6L6); test: Inhibition of EβG uptake in HEK293 cells overexpressing hOATP1B1; conditions: inhibitor 10 μM, 15-min pre-incubation
T1 sequence (Q9Y6L6 1-691): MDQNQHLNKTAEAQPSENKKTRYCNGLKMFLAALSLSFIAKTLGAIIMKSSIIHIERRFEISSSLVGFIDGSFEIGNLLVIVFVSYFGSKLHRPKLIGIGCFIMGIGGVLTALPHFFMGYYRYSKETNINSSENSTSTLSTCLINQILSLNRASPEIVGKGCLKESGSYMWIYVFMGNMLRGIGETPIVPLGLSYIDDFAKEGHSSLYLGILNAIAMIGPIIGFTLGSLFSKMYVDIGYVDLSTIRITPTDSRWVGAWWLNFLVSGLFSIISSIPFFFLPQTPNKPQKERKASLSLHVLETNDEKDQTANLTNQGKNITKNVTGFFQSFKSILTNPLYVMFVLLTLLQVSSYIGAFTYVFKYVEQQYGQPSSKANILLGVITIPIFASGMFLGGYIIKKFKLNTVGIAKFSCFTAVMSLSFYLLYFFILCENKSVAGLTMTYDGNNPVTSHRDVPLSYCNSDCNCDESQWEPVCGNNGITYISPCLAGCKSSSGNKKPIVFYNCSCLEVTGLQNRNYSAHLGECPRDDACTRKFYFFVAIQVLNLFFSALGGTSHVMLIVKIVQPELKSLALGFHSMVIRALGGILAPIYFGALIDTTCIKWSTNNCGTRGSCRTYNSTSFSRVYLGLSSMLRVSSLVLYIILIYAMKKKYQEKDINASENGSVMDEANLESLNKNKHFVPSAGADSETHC

[2] = molecular target: hOATP4A1 (Homo sapiens, UniProt Q96BD0); test: Vincristine uptake screen, HeLa cells overexpressing hOATP4A1; type: in vitro ADME
hOATP4A1, sequence (Q96BD0 whole entry): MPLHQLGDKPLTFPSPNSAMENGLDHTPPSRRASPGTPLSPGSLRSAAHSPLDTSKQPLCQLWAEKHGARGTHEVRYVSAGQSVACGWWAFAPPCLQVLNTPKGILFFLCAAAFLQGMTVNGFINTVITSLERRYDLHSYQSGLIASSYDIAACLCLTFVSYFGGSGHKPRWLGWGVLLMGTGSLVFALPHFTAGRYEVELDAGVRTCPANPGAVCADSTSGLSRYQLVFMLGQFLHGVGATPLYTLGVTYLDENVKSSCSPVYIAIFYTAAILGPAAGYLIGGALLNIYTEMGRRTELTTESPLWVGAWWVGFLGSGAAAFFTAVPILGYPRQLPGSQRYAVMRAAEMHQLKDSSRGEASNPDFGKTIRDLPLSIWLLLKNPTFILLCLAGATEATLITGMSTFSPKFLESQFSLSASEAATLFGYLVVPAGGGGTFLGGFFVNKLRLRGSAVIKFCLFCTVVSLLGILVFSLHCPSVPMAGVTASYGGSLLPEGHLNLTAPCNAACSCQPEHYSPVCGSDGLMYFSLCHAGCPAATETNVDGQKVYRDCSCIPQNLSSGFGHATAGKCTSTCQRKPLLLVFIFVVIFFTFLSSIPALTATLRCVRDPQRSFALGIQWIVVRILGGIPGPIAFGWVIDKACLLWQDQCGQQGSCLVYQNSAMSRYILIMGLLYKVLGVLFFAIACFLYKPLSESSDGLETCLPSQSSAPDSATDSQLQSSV
Procedure: (§1) Relative uptake is expressed as percentage change compared with empty vector controls (n = 4–14 per group). […] Human OATP1B1 and OATP1B3 transporter–overexpressed cells were used as positive controls; empty vector controls were used as the negative control. […] Mechanical allodynia (C), thermal hyperalgesia (D), and sciatic nerve maximal action potential amplitudes (E) are expressed as percentage change relative to baseline values (n = 6–8 per group). Statistical analysis was performed using a 2-way ANOVA with Bonferroni’s post hoc test. **P < 0.01, ***P < 0.001, ****P < 0.0001, compared with baseline values. […] Data are shown as mean ± SEM. […]
(§2) transfected with transporters of interest, including hOAT1, hOAT3, hOAT4, hOATP1A2, hOATP3A1, hOATP4A1, hOATP5A1, hOATP1C1, hOATP1B1, hOATP1B3, hOATP2B1, hOCT1, hOCT2, hOCTN1, hOCTN2, hASBT, hNTCP, hNPT1, hMATE1, hOSTα/β, hPEPT1, hPEPT2, rOatp1a1, rOatp1a4, rOatp1a5, rOatp1b2, rNtcp, rAsbt, rOat1, and rOct1. Cells were transfected with expression plasmid or vector control lacking any insert using Lipofectin reagent (Invitrogen). Sixteen hours thereafter, cells were washed with transport media (OPTIMEM, Invitrogen) and treated with radiolabeled drug. […] The cellular radioactivity was quantified by liquid scintillation counting as described above. […]

[3] = molecular target: hASBT (Homo sapiens, UniProt Q12908); test: Vincristine uptake screen, HeLa cells overexpressing hASBT; type: in vitro ADME
hASBT, sequence (Q12908 whole entry): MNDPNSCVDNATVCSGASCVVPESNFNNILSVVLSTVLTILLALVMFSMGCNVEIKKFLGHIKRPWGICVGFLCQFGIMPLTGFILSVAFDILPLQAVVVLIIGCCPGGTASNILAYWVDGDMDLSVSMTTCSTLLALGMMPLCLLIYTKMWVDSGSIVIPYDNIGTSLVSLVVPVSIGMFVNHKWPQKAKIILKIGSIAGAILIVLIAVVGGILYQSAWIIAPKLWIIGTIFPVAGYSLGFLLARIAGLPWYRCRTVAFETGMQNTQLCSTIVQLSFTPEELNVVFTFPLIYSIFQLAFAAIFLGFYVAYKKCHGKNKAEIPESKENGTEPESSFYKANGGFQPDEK
Procedure: as §1
transfected with transporters of interest, including hOAT1, hOAT3, hOAT4, hOATP1A2, hOATP3A1, hOATP4A1, hOATP5A1, hOATP1C1, hOATP1B1, hOATP1B3, hOATP2B1, hOCT1, hOCT2, hOCTN1, hOCTN2, hASBT, hNTCP, hNPT1, hMATE1, hOSTα/β, hPEPT1, hPEPT2, rOatp1a1, rOatp1a4, rOatp1a5, rOatp1b2, rNtcp, rAsbt, rOat1, and rOct1. Cells were transfected with expression plasmid or vector control lacking any insert using Lipofectin reagent (Invitrogen). […] The cellular radioactivity was quantified by liquid scintillation counting as described above. […]
Samples were analyzed using real-time quantitative PCR and Taqman Probes (Applied Biosystems). The relative gene expression was determined using the ΔΔCt method, and normalized to the mouse or human housekeeping gene, GAPDH. […]

[4] = molecular target: hNPT1 (Homo sapiens, UniProt Q14916); test: Vincristine uptake screen, HeLa cells overexpressing hNPT1; type: in vitro ADME
hNPT1, sequence (Q14916 whole entry): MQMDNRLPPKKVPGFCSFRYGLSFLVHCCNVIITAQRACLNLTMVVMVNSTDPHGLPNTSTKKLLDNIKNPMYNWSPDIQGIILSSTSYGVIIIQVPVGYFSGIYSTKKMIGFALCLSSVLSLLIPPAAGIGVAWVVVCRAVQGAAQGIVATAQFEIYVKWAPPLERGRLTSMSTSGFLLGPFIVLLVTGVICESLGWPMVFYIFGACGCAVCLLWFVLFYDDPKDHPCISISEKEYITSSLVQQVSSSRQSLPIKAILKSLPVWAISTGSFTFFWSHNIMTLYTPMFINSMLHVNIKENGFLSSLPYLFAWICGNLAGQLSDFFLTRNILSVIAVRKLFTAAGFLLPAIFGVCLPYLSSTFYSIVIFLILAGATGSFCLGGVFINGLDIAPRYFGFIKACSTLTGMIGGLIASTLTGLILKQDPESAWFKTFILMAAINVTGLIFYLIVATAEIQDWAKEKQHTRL
Procedure: as §1, §2

[5] = molecular target: hMATE1 (Homo sapiens, UniProt Q96FL8); test: Substrate uptake in HEK293 cells overexpressing hMATE1; conditions: HEK293 human MATE1
hMATE1, sequence (Q96FL8 whole entry): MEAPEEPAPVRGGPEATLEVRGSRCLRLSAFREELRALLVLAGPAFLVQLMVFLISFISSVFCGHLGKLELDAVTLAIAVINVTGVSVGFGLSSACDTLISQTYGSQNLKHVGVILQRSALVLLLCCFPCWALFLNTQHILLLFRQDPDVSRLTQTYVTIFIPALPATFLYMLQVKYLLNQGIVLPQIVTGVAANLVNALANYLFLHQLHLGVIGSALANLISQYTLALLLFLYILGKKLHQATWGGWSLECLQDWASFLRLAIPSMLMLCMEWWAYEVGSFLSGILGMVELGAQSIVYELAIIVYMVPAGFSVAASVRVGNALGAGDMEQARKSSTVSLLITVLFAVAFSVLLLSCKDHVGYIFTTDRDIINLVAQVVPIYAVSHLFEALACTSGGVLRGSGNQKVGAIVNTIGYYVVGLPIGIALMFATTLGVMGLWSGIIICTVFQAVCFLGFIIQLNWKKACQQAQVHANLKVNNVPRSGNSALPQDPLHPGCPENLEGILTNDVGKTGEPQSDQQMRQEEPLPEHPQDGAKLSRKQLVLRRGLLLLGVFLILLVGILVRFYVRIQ
Procedure: on OATP1B1, OATP1B3, or OATP1B2 function was evaluated using EβG (Axxora LLC) as the
transfected with transporters of interest, including hOAT1, hOAT3, hOAT4, hOATP1A2, hOATP3A1, hOATP4A1, hOATP5A1, hOATP1C1, hOATP1B1, hOATP1B3, hOATP2B1, hOCT1, hOCT2, hOCTN1, hOCTN2, hASBT, hNTCP, hNPT1, hMATE1, hOSTα/β, hPEPT1, hPEPT2, rOatp1a1, rOatp1a4, rOatp1a5, rOatp1b2, rNtcp, rAsbt, rOat1, and rOct1. Cells were transfected with expression plasmid or vector control lacking any insert using Lipofectin reagent (Invitrogen). Sixteen hours thereafter, cells were washed with transport media (OPTIMEM, Invitrogen) and treated with radiolabeled drug. At various time intervals, cells were washed three times with ice-cold PBS and then lysed with 1% sodium dodecyl sulfate. The cellular radioactivity was quantified by liquid scintillation counting as described above. Similar analyses were performed in HEK293 cells transfected with hOATP1A2, hOATP1C1, mMATE1, and hMATE1, with cells seeded in poly lysine pre-coated 12-well plates. For hOATP1A2 and hOATP1C1, transient transfections were performed with either an empty vector, OATP1A2, or OATP1C1 using Lipofectamine 2000 according to the manufacturers protocol (Invitrogen).

Row | Structure (SMILES) | EβG uptake (% of vehicle) [1] | Vincristine uptake (% of vector control) [2] | Vincristine uptake (% of vector control) [3] | Vincristine uptake (% of vector control) [4] | Contribution of transporter to cellular uptake of vincristine [5]
1 | Cc1cn(-c2cc(NC(=O)c3ccc(C)c(Nc4nccc(-c5cccnc5)n4)c3)cc(C(F)(F)F)c2)cn1 [Nilotinib, nilotinib] | 9.108 % of vehicle and 9.828 % of vehicle and 15.7637 % of vehicle |  |  |  | 
2 | CC[C@]1(O)C[C@H]2CN(CCc3c([nH]c4ccccc34)[C@@](C(=O)OC)(c3cc4c(cc3OC)N(C=O)[C@H]3[C@@](O)(C(=O)OC)[C@H](OC(C)=O)[C@]5(CC)C=CCN6CC[C@]43[C@@H]65)C2)C1 [Vincristine, vincristine] |  | 134.00 % of vector control and 105.00 % of vector control and 130.00 % of vector control and 116.00 % of vector control and 108.00 % of vector control and 117.00 % of vector control and 144.00 % of vector control and 140.00 % of vector control | 91.00 % of vector control and 82.00 % of vector control and 85.00 % of vector control and 81.00 % of vector control and 114.00 % of vector control and 83.00 % of vector control and 69.00 % of vector control and 101.00 % of vector control | 120.00 % of vector control and 91.00 % of vector control and 99.00 % of vector control and 72.00 % of vector control and 100.00 % of vector control and 104.00 % of vector control and 113.00 % of vector control | do not appreciably contribute to the cellular uptake of vincristine
